# Data as given in PubChem BioAssay (NCI).
#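 Compound exposure: 48 hours, 5 concentrations, 96-well plates. At the TGI there is no net growth.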
# Experiments:
# Assay in all cases: DTP human tumour cell line panel, 48 h
# NCI/ADR-RES ovarian = tested on: NCI/ADR-RES ovarian
# SK-MEL-28 melanoma = tested on: SK-MEL-28 melanoma
# SK-OV-3 ovarian = tested on: SK-OV-3 ovarian
# NCI-H23 lung = tested on: NCI-H23 lung
# PC-3 prostate = tested on: PC-3 prostate
# RPMI-8226 leukemia = tested on: RPMI-8226 leukemia
# OVCAR-8 ovarian = tested on: OVCAR-8 ovarian
# HL-60(TB) leukemia = tested on: HL-60(TB) leukemia
# HS 578T breast = tested on: HS 578T breast
# 786-0 renal = tested on: 786-0 renal
# OVCAR-3 ovarian = tested on: OVCAR-3 ovarian
# UO-31 renal = tested on: UO-31 renal
# U251 CNS = tested on: U251 CNS
# NCI-H226 lung = tested on: NCI-H226 lung
# M14 melanoma = tested on: M14 melanoma
# KM12 colon = tested on: KM12 colon
# ACHN renal = tested on: ACHN renal
# LOX IMVI melanoma = tested on: LOX IMVI melanoma
# CCRF-CEM leukemia = tested on: CCRF-CEM leukemia
# CAKI-1 renal = tested on: CAKI-1 renal
SMILES,TGI (NCI/ADR-RES ovarian) [µM],TGI (SK-MEL-28 melanoma) [µM],TGI (SK-OV-3 ovarian) [µM],TGI (NCI-H23 lung) [µM],TGI (PC-3 prostate) [µM],TGI (RPMI-8226 leukemia) [µM],TGI (OVCAR-8 ovarian) [µM],TGI (HL-60(TB) leukemia) [µM],TGI (HS 578T breast) [µM],TGI (786-0 renal) [µM],TGI (OVCAR-3 ovarian) [µM],TGI (UO-31 renal) [µM],TGI (U251 CNS) [µM],TGI (NCI-H226 lung) [µM],TGI (M14 melanoma) [µM],TGI (KM12 colon) [µM],TGI (ACHN renal) [µM],TGI (LOX IMVI melanoma) [µM],TGI (CCRF-CEM leukemia) [µM],TGI (CAKI-1 renal) [µM]
O=C(O)c1ccccc1/C=N/NC1=NCCN1,> 100,> 100,> 100,> 100,> 100,> 100,> 100,> 100,> 100,> 100,> 100,> 100,> 100,> 100,> 100,> 100,> 100,> 100,> 100,–
COc1ccc(C(=O)c2sc(N(C)C)nc2-c2ccccc2)cc1,49.8,> 100,71.8,> 100,> 100,> 100,–,40.9,> 100,> 100,48.6,> 100,> 100,> 100,> 100,73,> 100,> 100,65.2,–
CCOC(=O)c1cc2c([nH]1)c(O)cc1c2ccn1Cc1ccccc1,38.5,33.8,39.5,28.1,34.2,27.9,33.4,33.9,77.4,32.6,31.6,29.3,31.6,36.9,47.5,24.8,–,28.1,39.9,36.8
O=c1[nH]c(=O)n(CCOc2ccccc2)cc1Nc1ccccc1,> 100,> 100,–,> 100,> 100,> 100,–,–,> 100,> 100,> 100,> 100,> 100,–,> 100,> 100,> 100,> 100,> 100,> 100
Clc1ccccc1-c1nc2ccc(C34CC5CC(CC(C5)C3)C4)cc2[nH]1,> 100,> 100,42.9,36.4,34,> 100,22.8,> 100,89.9,25.9,–,28.1,20.5,> 100,70.7,> 100,28.8,29.8,> 100,> 100
Cc1cc(S(=O)(=O)Nc2nc(N)n(-c3ccccn3)n2)c(S)cc1Cl,> 100,> 100,> 100,–,> 100,> 100,> 100,> 100,> 100,> 100,> 100,> 100,> 100,> 100,> 100,> 100,> 100,> 100,> 100,> 100
CC(=O)c1sc2c(c1OC(=O)c1ccco1)c(=O)n(-c1ccccc1)c(=S)n2-c1ccccc1,51.2,61.9,55.3,73.8,64.2,41.6,> 100,45,20,> 100,> 100,49.3,88.1,16.1,28.3,48.5,–,39.3,43.5,> 100
O=C(Cn1c2c(c3ccccc31)CCCC2)N1CCCC1,> 100,> 100,> 100,> 100,> 100,> 100,> 100,> 100,87.2,> 100,> 100,> 100,–,–,> 100,–,> 100,> 100,–,> 100
c1ccc(-c2nc3ccccc3n3c(CN4CCCCC4)nnc23)cc1,> 100,> 100,> 100,–,> 100,> 100,> 100,–,> 100,> 100,> 100,–,> 100,> 100,> 100,–,> 100,> 100,> 100,> 100
Cc1ccc(S(=O)(=O)c2ccsc2NC(=O)C(F)(F)F)cc1,> 100,> 100,> 100,> 100,> 100,31,> 100,–,> 100,> 100,> 100,96.1,> 100,> 100,> 100,> 100,> 100,> 100,–,82.6
CCOCc1c(C)cc(C)c(C2C(C(=O)c3ccccc3)N3c4ccccc4C=CC3C2(C#N)C(=O)OCC)c1C (centres undefined),> 100,> 100,–,> 100,> 100,> 100,–,> 100,> 100,> 100,> 100,> 100,> 100,–,> 100,54.9,> 100,> 100,> 100,> 100
OC1(c2ccc(Cl)cc2)C(N2CCCC2)c2ccccc2C2=NCCN21 (centres undefined),59.9,31.9,57.6,92.7,> 100,32.1,58.8,50.7,89.9,> 100,> 100,> 100,> 100,–,31.7,60,> 100,36.7,> 100,94.6
Nc1cccnc1NCC1(CO)CCCC1,> 100,> 100,> 100,> 100,> 100,> 100,> 100,> 100,> 100,> 100,> 100,> 100,> 100,> 100,–,> 100,> 100,> 100,> 100,> 100
N#Cc1c(=O)n(-c2ccccc2)c(O)c2c(N)n[nH]c12,> 100,> 100,> 100,> 100,> 100,> 100,> 100,> 100,> 100,> 100,> 100,> 100,> 100,> 100,> 100,> 100,–,> 100,–,> 100
O=c1[nH]nc(-c2ccccc2)n1-c1ccncc1,> 100,> 100,–,> 100,> 100,> 100,> 100,> 100,> 100,> 100,> 100,> 100,> 100,> 100,> 100,> 100,> 100,> 100,> 100,> 100
CCOC(=O)c1c(NC(=O)c2cccs2)sc2c1CCC2,> 100,–,–,> 100,> 100,> 100,> 100,> 100,> 100,> 100,> 100,> 100,–,> 100,> 100,> 100,> 100,–,> 100,> 100
NCCCCC(NC(=O)C(N)Cc1ccc(O)cn1)C(=O)O (centres undefined),> 100,> 100,–,> 100,> 100,> 100,> 100,> 100,> 100,> 100,> 100,> 100,> 100,> 100,–,> 100,> 100,> 100,> 100,> 100
Ic1ccc2c(c1)N(c1ccccc1)c1cc(N=c3ccc4nc5ccc(I)cc5n(-c5ccccc5)c-4c3)ccc1N2,> 100,> 100,> 100,> 100,> 100,> 100,> 100,58.2,> 100,> 100,16.1,> 100,> 100,> 100,80.1,> 100,> 100,–,> 100,> 100
COC(=O)CC(c1cn(S(=O)(=O)c2ccc(C)cc2)c2ccccc12)C1C[C@@H](C(=O)OC)N(C(=O)OC(C)(C)C)C1=O (some centres undefined),> 100,> 100,–,> 100,> 100,35.4,> 100,> 100,> 100,> 100,> 100,> 100,> 100,> 100,> 100,> 100,> 100,> 100,76.9,> 100
CC(C)(C)/C(=N\Nc1nc2ccccc2[nH]1)c1ccccn1,> 100,> 100,> 100,> 100,> 100,35.4,> 100,–,> 100,> 100,73.3,> 100,> 100,> 100,> 100,> 100,> 100,> 100,> 100,> 100
COc1ccccc1N(CN1C(=O)CCC1C(=O)O)C(C)=O (centres undefined),> 100,> 100,> 100,> 100,> 100,> 100,> 100,> 100,> 100,> 100,> 100,> 100,> 100,> 100,> 100,> 100,> 100,> 100,–,> 100
CC(C)(C)OC(=O)CN1C(=O)CC1CC(=O)c1ccccc1 (centres undefined),> 100,36.7,–,36.5,30.9,15.3,32.6,47.9,84.2,32.9,33.5,31.4,29.4,43.5,30.4,44.4,41.7,31.3,–,49.4
O=c1cc(N2CCNCC2)nc2ccccn12,> 100,–,> 100,> 100,> 100,> 100,> 100,> 100,> 100,> 100,> 100,> 100,> 100,> 100,> 100,> 100,> 100,> 100,> 100,> 100
CN(C)c1ccc(/C=C2/NC(=S)NC2=O)cc1,> 100,> 100,> 100,> 100,> 100,> 100,> 100,51,> 100,> 100,> 100,> 100,> 100,> 100,> 100,–,> 100,> 100,80.8,> 100
CC(C)(C)C(=O)OCOP(=O)(OCOC(=O)C(C)(C)C)OCC1OC(n2ccc(=O)[nH]c2=O)C(N=[N+]=[N-])C1O (centres undefined),23.5,24,–,16.3,14.1,5.22,12.9,4.84,7.64,10.3,3.25,4.58,10.5,22,14.3,12.8,17.8,3.44,13.3,22.5
Cc1cc(C)c2c(O)c(S(=O)(=O)c3ccc(Cl)cc3)c(=O)oc2c1,> 100,> 100,> 100,> 100,> 100,> 100,> 100,> 100,> 100,> 100,> 100,> 100,> 100,> 100,> 100,> 100,–,–,> 100,> 100
